# From patent publication US9226501B2, “Pesticidal compositions and processes related thereto” (Dow AgroSciences LLC, priority 2012, dated 2016)
# Legend:
# Format in all cases: in vivo
# [1] = tested on: Beet Armyworm (BAW) (spodoptera exigua); assay: Bioassay on beet armyworm (BAW), 128-well diet tray assay; details: for pest or weed control at 50 µg/cm2: Spodoptera exigua, 168 h, % mortality, second instar larvae, 50 μg/cm^2 on artificial diet, five to seven days, 25° C., read-out: BAW Rating; for BAW Rating: Table 5, prophetic compounds subsequently exemplified, beet armyworm
# How it was run: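 Second-instar Spodoptera exigua larvae (one to five per well) on artificial diet surface-treated with 50 μg/cm^2 compound in 90:10 acetone-water, eight wells per compound. Held 5–7 days at 25° C, 14:10 light-dark; percent mortality averaged across wells.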
# [2] = tested on: Cabbage Looper (CL) (Trichoplusia ni); assay: Bioassay on cabbage looper (CL), 128-well diet tray assay; details: for pest or weed control at 50 µg/cm2: Trichoplusia ni, 168 h, % mortality, second instar larvae, 50 μg/cm^2 on artificial diet, five to seven days, 25° C., read-out: CL Rating; for CL Rating: Table 5, prophetic compounds subsequently exemplified, cabbage looper
# How it was run: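 Second instar larvae, one to five per well, on artificial diet surface-treated with 50 μg/cm^2 compound in acetone-water and dried. Held at 25° C, 14:10 light-dark, five to seven days; percent mortality averaged over eight wells.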
# [3] = tested on: green peach aphid (GPA) (Myzus persicae); assay: Bioassay on green peach aphid (GPA), foliar spray on cabbage seedlings; details: 72 h, corrected % control (Abbott), 200 ppm spray on cabbage seedlings, three days, read-out: GPA Rating
# Experimental: Certain molecules disclosed in this document were tested against GPA using procedures described in the following example. In the reporting of the results, the “GPA Rating Table” was used (See Table Section). Cabbage seedlings grown in 3-inch pots, with 2-3 small (3-5 cm) true leaves, were used as test substrate. The seedlings were infested with 20-50 GPA (wingless adult and nymph stages) one day prior to chemical application. Four pots with individual seedlings were used for each treatment. Test compounds (2 mg) were dissolved in 2 mL of acetone/MeOH (1:1) solvent, forming stock solutions of 1000 ppm test compound. The stock solutions were diluted 5× with 0.025% Tween 20 in water to obtain the solution at 200 ppm test compound. A hand-held aspirator-type sprayer was used for spraying a solution to both sides of […] leaves until runoff. Reference plants (solvent check) were sprayed with the diluent only containing 20% by volume of acetone/MeOH (1:1) solvent. Treated plants were held in a holding room for three days at approximately 25° C. and ambient relative humidity (RH) prior to grading. Evaluation was conducted by counting the number of live aphids per plant under a microscope. Percent Control was measured by using Abbott's correction formula (W. S. Abbott, “A Method of Computing the Effectiveness of an Insecticide” J. Econ. Entomol. 18 (1925), pp. 265-267) as follows. […]
Structure (SMILES),pest or weed control at 50 µg/cm2 [1] [%],pest or weed control at 50 µg/cm2 [2] [%],pest or weed control at 200 ppm [3] [%],BAW Rating [1],CL Rating [2]
C[C@@H](NC(=O)c1ccc(/C=C/C(c2cc(Cl)c(Cl)c(Cl)c2)C(F)(F)F)cc1I)C(=O)NCC(F)(F)F (stereo partly shown) [FA16],50 to 100,50 to 100,80 to 100,–,–
C[C@@H](NC(=O)c1ccc(/C=C/C(c2cc(Br)c(Cl)c(Br)c2)C(F)(F)F)cc1C(F)(F)F)C(=O)NCC(F)(F)F (stereo partly shown) [FA27],50 to 100,50 to 100,–,–,–
O=C(CNC(=O)c1ccc(/C=C/C(c2cccc(C(F)(F)F)c2)C(F)(F)F)cc1Br)NCC(F)(F)F (stereo not shown) [P1],–,–,–,A (50-100),A (50-100)
CSc1cc(/C=C/C(c2cc(Cl)c(F)c(Cl)c2)C(F)(F)F)ccc1C(=O)NCC(=O)NCC(F)(F)F (stereo not shown) [P12],–,–,–,A (50-100),A (50-100)
CC(NC(=O)c1ccc(/C=C/C(c2cc(Cl)c(Cl)c(Cl)c2)C(F)(F)F)cc1Br)C(=O)NCC(F)F (stereo not shown) [P1611A],–,–,–,A (50-100),A (50-100)
C=Cc1cc(/C=C/C(c2cc(Cl)c(Cl)c(Cl)c2)C(F)(F)F)ccc1C(=O)NCC(=O)NCC(F)(F)F (stereo not shown) [FA18],50 to 100,50 to 100,–,–,–
C[C@@H](NC(=O)c1ccc(/C=C/C(c2cc(Cl)c(Cl)c(Cl)c2)C(F)(F)C(F)(F)F)cc1C(F)(F)F)C(=O)NCC(F)(F)F (stereo partly shown) [P1601],–,–,–,A (50-100),A (50-100)
C[C@@H](NC(=O)c1ccc(/C=C/C(c2cc(Cl)c(Cl)c(Cl)c2)C(F)(F)F)cc1Br)C(=O)NCCF (stereo partly shown) [P1616],–,–,–,A (50-100),A (50-100)
COc1c(F)cc(C(/C=C/c2ccc(C(=O)NCC(=O)NCC(F)(F)F)c(Br)c2)C(F)(F)F)cc1F (stereo not shown) [FA8],0 to 50,50 to 100,–,–,–
CC(NC(=O)c1ccc(/C=C/C(c2cc(Cl)c(Cl)c(Cl)c2)C(F)(F)F)cc1Br)C(=O)NCCF (stereo not shown) [P1616A],–,–,–,A (50-100),A (50-100)
O=C(CNC(=O)c1ccc(/C=C/C(c2cc(Cl)c(Cl)c(Cl)c2)C(F)(F)F)cc1I)NCC(F)(F)F (stereo not shown) [FA24],50 to 100,50 to 100,–,–,–
C[C@@H](NC(=O)c1ccc(/C=C/C(c2cc(Cl)cc(Cl)c2)C(F)(F)F)cc1Br)C(=O)NCC(F)(F)F (stereo partly shown) [P1696],–,–,–,A (50-100),A (50-100)
CC(C)(NC(=O)c1ccc(/C=C/C(c2cc(Cl)c(Cl)c(Cl)c2)C(F)(F)F)cc1)C(=O)NCC(F)(F)F (stereo not shown) [P1636],–,–,–,A (50-100),A (50-100)
C[C@@H](NC(=O)c1ccc(/C=C/C(c2cc(Cl)c(Br)c(Cl)c2)C(F)(F)F)cc1C(F)(F)F)C(=O)NCC(F)(F)F (stereo partly shown) [FA21],50 to 100,50 to 100,–,–,–
CC(C)(NC(=O)c1ccc(/C=C/C(c2cc(Cl)c(Cl)c(Cl)c2)C(F)(F)F)cc1Br)C(=S)NCC(F)(F)F (stereo not shown) [FA11],0 to 50,50 to 100,–,–,–
O=C(CNC(=O)c1ccc(/C=C/C(c2cc(Cl)c(Cl)c(Cl)c2)C(F)(F)F)cc1Br)NCC(F)F (stereo not shown) [FA3],50 to 100,50 to 100,–,–,–
Cc1cc(C(/C=C/c2ccc(C(=O)N[C@H](C)C(=O)NCC(F)(F)F)c(C(F)(F)F)c2)C(F)(F)F)ccc1F (stereo partly shown) [P1092],–,–,–,A (50-100),A (50-100)
C[C@@H](NC(=O)c1ccc(/C=C/C(c2cc(Br)c(Cl)c(Br)c2)C(F)(F)F)cc1Br)C(=O)NCC(F)(F)F (stereo partly shown) [FA26],50 to 100,50 to 100,–,–,–
